According to article PMC4311633, “Effects of RAMEA-complexed polyunsaturated fatty acids on the response of human dendritic cells to inflammatory signals” (Beilstein Journal of Organic Chemistry, 2014):

How the values were obtained:
[1] = Solubility in 20% randomly methylated CD solutions and complexation efficiency, EPA; assay type: physicochemical; conditions: calculated from solubility data in 20% CD solution, 24 h, rt
Procedure: (§1) The complexation efficiency calculated from the solubility data characterize the affinity of the various methylated CDs toward the lipids studied (Table 1). The complex association constants were not calculated because the intrinsic solubility in water is so low that it cannot be determined with a precision sufficient for the calculations.
(§2) The solubility of fatty acids in CD solutions was determined by adding PUFAs to the aqueous solutions at 20% RAMEA, RAMEB or RAMEG, respectively, stirring for 24 h at rt and then analyzed the filtered saturated solutions by HPLC using Hypersil ODS column (4 × 125 mm, particle size 5 μm) with guard column, mobile phase: acetonitrile/water 75:25 with 0.15% concentrated phosphoric acid, 2.0 mL/min flow rate, at 40 °C and UV detection at 210 nm.

[2] = Solubility in 20% randomly methylated CD solutions and complexation efficiency, cholesterol; assay type: physicochemical; conditions: for Solubilization of cholesterol: aqueous solution of 20% CD vs distilled water; for Complexation efficiency for Cholesterol: calculated from solubility data in 20% CD solution, 24 h, rt
[3] = Solubility in 20% randomly methylated CD solutions and complexation efficiency, ALA; assay type: physicochemical; conditions: calculated from solubility data in 20% CD solution, 24 h, rt
Procedure: as §1, §2

[4] = Solubilization of n−3 PUFAs in aqueous methylated CD solutions; assay type: physicochemical; conditions: aqueous solution of 20% CD vs distilled water
Procedure: Cyclodextrins (CDs) are efficient solubilizers of lipids. […] The solubilizing effect of RAMEA in the case of n−3 PUFAs seems to be high enough for using it as a solubilizer without the risk of interaction with cholesterol-rich lipid rafts in the cell membrane.
as §2

[5] = Solubility in 20% randomly methylated CD solutions and complexation efficiency, DHA; assay type: physicochemical; conditions: calculated from solubility data in 20% CD solution, 24 h, rt
Procedure: as §1, §2

[6] = test system: CD1a cell surface protein in moDC; experiment: CD1a cell surface expression in moDC by flow cytometry; assay type: cell-based, human; conditions: 20 µM/mL, resting, LPS- or Poly(I:C)-activated moDC; for Expression of CD1a protein on the surface of moDC: RAMEA-complexed PUFA compared with DMSO/ethanol form
Procedure: (§3) Peripheral blood mononuclear cells (PBMC) were separated from buffy coats by Ficoll gradient centrifugation (Amersham Biosciences, Uppsala, Sweden). Monocytes were isolated by positive selection using magnetic cell separation with anti-CD14-conjugated microbeads (Miltenyi Biotech, Bergisch Gladbach, Germany). […] The purified cells were cultured at a density of 10^6 cells/mL in serum free AIMV medium supplemented with 80 ng/mL granulocyte-macrophage colony stimulating factor (GM-CSF) purchased from Gentaur and 50 ng/mL IL-4 from Peprotech.
(§4) On day 0 and day 2 of the in vitro moDC differentiation process the cultures were supplemented with GM-CSF and IL-4 and were treated with 20 µM/mL n−3 PUFAs. On day 5 the fully differentiated cells were activated by 500 ng/mL bacterial lipopolysaccharide (LPS) (Sigma Aldrich) or by 500 ng/mL Poly(I:C) (InvivoGen, San Diego, CA, USA) or were left untreated. The negative controls were treated by DMSO or by 20 µM/mL RAMEA. The positive controls were stimulated by LPS or Poly(I:C) in the absence of PUFAs.
Phenotyping of moDC was performed by flow cytometry using anti-CD83-PE and anti-CD1a-FITC specific antibodes from BioLegend at the protein level (San Diego, CA, USA). Fluorescence intensities were measured with FACSCalibur (BD Biosciences). Data analysis was performed with the FlowJo software (Tree Star, Ashland, OR, USA).

[7] = test system: GPR120 receptor expression in moDC; experiment: GPR120 expression in moDC by Q-PCR; assay type: cell-based, human; conditions: 20 µM/mL; LPS-activated moDC; Q-PCR normalized to cyclophilin
Procedure: as §3, §4
GPR120 expression levels were measured by real-time quantitative PCR (Q-PCR). […] Q-PCR was performed using the ABI StepOne Real Time PCR System (Applied Biosystems) and cycle threshold values were determined by using the StepOne v2.1 Software (Applied Biosystems).

| Compound | Complexation efficiency for EPA [1] | Solubilization of cholesterol [2] | Complexation efficiency for Cholesterol [2] | Complexation efficiency for ALA [3] | Solubilization of n−3 PUFAs [4] | Complexation efficiency for DHA [5] | Expression of CD1a protein on the surface of moDC [6] | GPR120 receptor expression [7] | Proportion of inflammatory CD1a+ cells ([6]; PUFA dissolved in DMSO/ethanol) |
| --- | --- | --- | --- | --- | --- | --- | --- | --- | --- |
| randomly methylated β-cyclodextrin [RAMEB] | 0.41 | cholesterol could be dissolved by RAMEB only | 0.08 | 0.43 | solubilized | 0.35 |  |  |  |
| randomly methylated α-cyclodextrin [RAMEA] | 0.21 | Neither RAMEA nor RAMEG could solubilize cholesterol to a measurable extent | <0.001 | 0.25 | solubilized | 0.10 |  |  |  |
| CC/C=C\C/C=C\C/C=C\CCCCCCCC(=O)O [ALA, α-linoleic acid] |  |  |  |  |  |  | solubilization method did not influence the effects |  |  |
| CC/C=C\C/C=C\C/C=C\C/C=C\C/C=C\C/C=C\CCC(=O)O [DHA, docosahexaenoic acid] |  |  |  |  |  |  | solubilization method did not influence the effects | induced preferentially by DHA | more efficient in decreasing the proportion of inflammatory CD1a^+ cells, than ALA or EPA |
